Patent US20070020193A1, “Dronabinol compositions and methods for using same” (priority 2005, published 2007)
“Also recorded” adds a separate entry of the source.

Assays:
healthy subjects [1] = assay: Example 1: conjunctiva congestion rating; type: in vivo, human
Description: Conjunctiva Congestion was rated by a trained observer on a scale of 0-3 based on the blood vessels present as follows:
0—None (The white of the eye was not affected)
3—Considerable (The compete white of the eye is red caused by a pattern of bigger vessels. This is associated with complaints.)
(§1) Absolute values of heart rate and conjunctive congestion scores were used to calculate changes from baseline.

healthy subjects [2] = test system: healthy subjects; set-up: species or system human; details: in vivo
healthy subjects [3] = assay: Example 2: heart rate (telemetry / vital signs); type: in vivo, human; details: for placebo-corrected mean heart rate: 1.2 mg; for Mean increase of heart rate above baseline: last day of dosing
Description: For Examples 1 and 2: Heart rate was obtained from the blood pressure recordings or using telemetry.
as §1
Changes from baseline in conjunctiva congestion and heart rate were compared for all time-points measured, and summarized using descriptive statistics. Subjective ratings were individually tabulated and sorted by treatment group, subject number, and time, and summarized using descriptive statistics. Separate tables were provided to summarize differences between males and females if applicable. Pharmacodynamic assessments were compared with delta-9 THC and 11-OH-THC blood concentrations and summarized using descriptive statistics.

healthy subjects [4] = assay: Example 2: subjective drug rating and ARCI-49; type: in vivo, human
Description: The data for Group I and Group II were pooled and submitted to a mixed effects general linear model analysis. Two sets of analyses were done. The first was for the pre-drug conditions. The fixed effect of day and the fixed effect of condition were non-significant for all of the five scale scores, indicating similarity of pre-drug baseline score. A second analysis compared condition, the first dosing day, the last dosing day, the four visits including pre-drug, and the subjects in the analysis of variance.
The subject responded to each of three questions on a scale of 0 to 100 with 0 meaning no effect/not at all and 100 meaning maximum/very much:
The ARCI is a true/false questionnaire developed to specifically measure the subjective effects of drugs which have diverse pharmacological actions. The […] (PCAG), morphine-benzedrine, and lysergic acid diethylamide subgroup scales were used to assess sedation, euphoria, and dysphoria. Questions from the marijuana subscale were also included.

healthy subjects [5] = assay: Example 2: safety, adverse events; type: in vivo, human; details: for events reported among subjects treated with active drug: all six subjects; for events considered probably or possibly related to study drug: all six subjects on active drug
Experimental: (§2) Adverse events were recorded based on original descriptions from subject responses to queries. Complete medical histories and physical examinations were conducted. Vital signs were monitored, ECGs were recorded along with pulmonary function tests and laboratory examinations.
Treatment-emergent adverse events (TEAEs), defined as any event that begins or worsens after treatment with study medication, were summarized by MedDRA system organ class (SOC) for each treatment group. The number and percentage of subjects with TEAEs was tabulated for each treatment and with respect to maximum severity and relationship to study medication.

healthy subjects [6] = assay: Example 2: 12-lead ECG and telemetric cardiac monitoring; type: in vivo, human; details: for heart rate, mean value (ECG) / heart rate, mean increase above baseline / heart rate, mean increase above pre-dose value on Day 1: Day 1, 20 minutes after dosing; for time for heart rate to return to baseline after dosing: Day 1
Experimental: as §2
Listings of values for each subject were presented with abnormal or out of range values for vital signs, laboratory assays, ECGs, pulmonary function tests, and physical examinations. Descriptive statistics (n, mean, standard deviation (SD), minimum, median, maximum) for all clinical laboratory safety parameters, ECGs, pulmonary function tests, and vital signs were provided. ECGs and physical examinations were to be summarized in shift tables to show changes from baseline between normal and abnormal findings.

[7] = oral administration, first-pass metabolism; cited from earlier work
[8] = after single dosing, both dose levels

## CCCCCc1cc(O)c2c(c1)OC(C)(C)[C@@H]1CCC(C)=C[C@@H]21 [delta-9-THC, delta-9-tetrahydrocannabinol]
Healthy subjects [1]; 9.6 mg dose group
  number of occurrences of slight congestion: 3
Healthy subjects [1]; 0.3 to 7.2 mg doses
  conjunctiva congestion: no or substantially no conjunctiva congestion
Healthy subjects [1]; each of the 3.6 and 7.2 mg doses
  occurrence of slight conjunctiva congestion: once
Healthy subjects [2]
  Choice reaction time: Significant decrements
  Digit Vigilance: slight decrement; also recorded: more marked decrements; also recorded: marked decrement
  Digit Vigilance, primary analysis: failed to show significant dose-time interaction
  Immediate word recall: No significant differences
  Numeric Working Memory Speed: significant decrements
  Numeric Working memory sensitivity index: No significant differences
  Spatial Working Memory Sensitivity Index: No significant differences
  Spatial Working Memory Speed: No significant differences
  delay of effects on VAS: up to two hours
  delay of effects on cognitive functioning: up to one hour
  delayed word recall, analysis: significant main effect of dose
  picture recognition sensitivity index: did not show any significant differences
  picture recognition speed: No significant differences
  word recognition speed: did not show any significant differences
  word sensitivity index (word recognition): No significant differences
Healthy subjects [3]; Day 1
  placebo-corrected mean heart rate: limited and short-lasting increase
Healthy subjects [3]; Day 12
  placebo-corrected mean heart rate: no increase
Healthy subjects [3]; 3.6 mg, Day 1
  duration of placebo-corrected heart rate increase post-dose: at least 4 hours
Healthy subjects [3]; 3.6 mg, after 19 days of dosing, by 10 minutes post-dose
  placebo-corrected mean heart rate, maximum increase: approximately 10 bpm
Healthy subjects [3]; Group I (1.2 mg), at 0.5 hours after dosing
  Mean increase of heart rate above baseline: ≤ 12 bpm
Healthy subjects [3]; Group II (3.6 mg), at 5 minutes after dosing
  Mean increase of heart rate above baseline: ≤ 18 bpm
Healthy subjects [3]; after single dose inhaled administration
  heart rate (summary): increased in a dose-dependent fashion
Healthy subjects [3]; [8]
  duration of effect on heart rate: 2 to 4 h
  time of maximum effect on heart rate: 2 to 5 min
Healthy subjects [4]; 1.2 mg, Day 1
  'feel the drug' and 'liking' scores: slightly larger than those who received placebo
Healthy subjects [4]; 1.2 mg, Day 12
  'disliking' scores: approximately the same or slightly higher
  'feel the drug' and 'liking' scores: diminished
Healthy subjects [4]; 3.6 mg, 1 hour post-dose
  ARCI Morphine Benzedrine Group (MBG) scale: some MBG effect
Healthy subjects [4]; 3.6 mg, Day 1
  'feel the drug', 'liking' and 'disliking' scores versus placebo: significantly larger
Healthy subjects [4]; 3.6 mg, Day 19
  subjective drug rating scores: still much larger than the placebo scores
Healthy subjects [4]; Groups I and II pooled
  ARCI Amphetamine Scale (AS): no significant effects for condition
  ARCI Benzedrine Group scale, interaction terms: significant for the visit and the condition by visit interaction terms
  ARCI LSD scale: no significance for condition, day, visit, or any of the interaction terms
Healthy subjects [4]; Groups I and II pooled, p less than 0.001
  ARCI PCAG scale, visit and condition times visit interaction: highly significant
Healthy subjects [5]; 1.2 mg, Group I, all six
  subjects reporting cough: 100%
Healthy subjects [5]; 3.6 mg for two weeks
  subjects with increased liver function tests (summary): three out of nine subjects
Healthy subjects [5]; 3.6 mg, Group II, five out of six
  subjects reporting cough: 83.3%
Healthy subjects [5]; Group 1, one subject
  subjects reporting euphoric mood: 16.7%
Healthy subjects [5]; Group I (1.2 mg dose level)
  most frequently reported TEAEs: cough and somnolence
Healthy subjects [5]; Group I Active (1.2 mg)
  TEAEs Probable/Possible, E = number of adverse events: 13
  TEAEs Probable/Possible, N = number of subjects: 6
  TEAEs Unlikely/Unrelated, E = number of adverse events: 7
  TEAEs Unlikely/Unrelated, N = number of subjects: 3
Healthy subjects [5]; Group I, 1.2 mg
  Any related TEAE, n (x %) subjects: 6 (100%)
  Any related TEAE, number AEs: 13
  Subjects with at least one AE, n (x %): 6 (100%)
  Subjects with at least one AE, number AEs: 20
Healthy subjects [5]; Group I
  events reported among subjects treated with active drug: 27 events
  events considered probably or possibly related to study drug: 13 events
Healthy subjects [5]; Group II (3.6 mg dose level)
  most frequently reported TEAEs: cough, headache, and euphoric mood
Healthy subjects [5]; Group II Active (3.6 mg)
  TEAEs Probable/Possible, E = number of adverse events: 17
  TEAEs Probable/Possible, N = number of subjects: 6
  TEAEs Unlikely/Unrelated, E = number of adverse events: 9
  TEAEs Unlikely/Unrelated, N = number of subjects: 3
Healthy subjects [5]; Group II, 3.6 mg
  Any related TEAE, n (x %) subjects: 6 (100%)
  Any related TEAE, number AEs: 17
  Subjects with at least one AE, n (x %): 6 (100%)
  Subjects with at least one AE, number AEs: 27
  subjects with liver enzymes elevated at follow-up: three subjects
Healthy subjects [5]; Group II
  events reported among subjects treated with active drug: 19 events
  events considered probably or possibly related to study drug: 17 events
Healthy subjects [5]; Group III (so in the source), three subjects
  subjects reporting euphoric mood: 50.0%
Healthy subjects [5]; active treatment, Group I
  duration of intermittent cough: between four and nine days
Healthy subjects [5]; active treatment, Group II
  duration of intermittent cough: between six and 18 days
Healthy subjects [5]; active treatment, two subjects in each group
  subjects reporting somnolence: 33.3%
Healthy subjects [5]; single and multiple dosing with 1.2 and 3.6 mg, pulmonary inhaled
  overall safety and tolerability: safe and well-tolerated
Healthy subjects [5]; summary
  vital signs, ECG, physical examination, telemetric monitoring and pulmonary function tests: No dose-related trends or clinically significant changes
Healthy subjects [5]; whole study
  deaths or serious adverse events: No deaths or serious adverse events
  intensity of TEAEs: mild intensity
  serious or severe AEs, AEs leading to premature termination: no serious or severe AEs
Healthy subjects [6]; Group I (1.2 mg)
  heart rate, mean value (ECG): 67 bpm
Healthy subjects [6]; Group I
  time for heart rate to return to baseline after dosing: ≤ 40 min
  heart rate, mean increase above baseline: 4 bpm
  heart rate, mean increase above pre-dose value on Day 1: 13 bpm
Healthy subjects [6]; Group II (3.6 mg)
  heart rate, mean value (ECG): 81 bpm
Healthy subjects [6]; Group II
  time for heart rate to return to baseline after dosing: ≤ 240 min
  heart rate, mean increase above baseline: 14 bpm
  heart rate, mean increase above pre-dose value on Day 1: 21 bpm
Healthy subjects [6]; Group II, first dose
  time of return of QTc towards baseline after dosing: ≤ 1 h
Healthy subjects [6]; each assessment time point
  Individual QTc values: less than 450 msec
  QTc individual values: < 422 ms
  QTc mean values: < 395 ms
Healthy subjects [6]; in vivo
  QTc-intervals using Fridericia's correction: no apparent effect
  telemetric cardiac monitoring: no clinically significant abnormalities
Healthy subjects [6]; single and multiple inhalational dosing
  ECG parameters: no clinically significant abnormalities or trends
[7]
  part of an orally administered dose that reaches systemic circulation: 10-20%
